US9499811B2, “Ligation enhancement” (New England Biolabs, Inc., priority 2011, dated 2016)
Read-outs that look alike come from different tables or passages of the source.

What was measured:
T4 DNA ligase [1] = target: T1, T4 DNA ligase (Enterobacteria phage T4, UniProt P00970); test: Cloning of a 500 bp amplicon made by Taq DNA polymerase into a T-tailed vector (ligation test system a); assay type: biochemical; design: purchased NEB (New England Biolabs), Ipswich, Mass. #M0202; conditions: no addition = 1-fold, single-base overhangs
T1 sequence (P00970 1-487): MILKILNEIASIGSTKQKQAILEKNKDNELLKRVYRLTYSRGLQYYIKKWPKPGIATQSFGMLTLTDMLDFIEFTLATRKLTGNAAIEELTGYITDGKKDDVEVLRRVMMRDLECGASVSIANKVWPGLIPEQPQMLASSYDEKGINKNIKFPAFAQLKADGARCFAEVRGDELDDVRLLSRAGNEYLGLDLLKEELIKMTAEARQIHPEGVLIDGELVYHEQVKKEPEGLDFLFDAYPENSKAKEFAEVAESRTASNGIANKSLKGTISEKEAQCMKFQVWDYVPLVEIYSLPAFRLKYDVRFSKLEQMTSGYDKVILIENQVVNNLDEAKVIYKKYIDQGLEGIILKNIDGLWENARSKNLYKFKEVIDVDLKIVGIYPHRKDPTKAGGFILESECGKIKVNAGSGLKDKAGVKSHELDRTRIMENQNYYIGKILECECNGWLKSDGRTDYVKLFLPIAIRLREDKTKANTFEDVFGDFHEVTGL
Description: (§1) All were tested side-by-side using two ligation test systems which were: (a) cloning of a 500 bp amplicon made by Taq DNA polymerase into a T-tailed vector; and (b) recircularization of an AhdI-linearized plasmid. Both ligation test systems used DNA with single-base overhangs.
(§2) The reaction mixtures contained DNA at 50-100 ng and 1,2-PrD at different concentrations. 1 μl of regular concentration (NEB, Ipswich, Mass., #M0202; 400 units) or 1 μl of high concentration T4 DNA ligase (NEB, Ipswich, Mass., #M0202; 2000 units) was then added to a final volume of 21 μl in 1×T4 DNA Ligase Buffer (NEB, Ipwich, Mass., #B0202) or 1× Quick Ligase™ Buffer (NEB, Ipswich, Mass., #B2200).
(§3) A standard assay uses 100 ng DNA, 1 μl of T4 DNA ligase, 21 μl 1×T4 DNA ligase buffer and varying amounts of enhancer.
(§4) Ligation reactions were incubated for 10 min at room temperature (25° C.) unless otherwise stated, then placed on ice for 2 min. In some experiments the ligase was heat-killed by incubation at 65° C. for 20 min. The ligation reactions were analyzed by 1% agarose gel electrophoresis to identify DNA species and determine the efficiency of […].
(§5) A volume of 2 μl from each ligation reaction was incubated with 50 μl of chemically competent (NEB, Ipswich, Mass., #C2987I) or electrocompetent (NEB, Ipswich, Mass., #C2989K) DH5 alpha E. coli cells.
(§6) For chemically competent cell transformations, the cell-DNA mixture was incubated on ice for 30 min, heat-shocked at 42° C. for 30 sec, then returned to ice for 5 min. A volume of 950 μl SOC medium (2% vegetable peptone or Tryptone, 0.5% yeast extract, 10 mM NaCl, 2.5 mM KCl, 10 mM MgCl2, 10 mM MgSO4 and 20 mM glucose) was added to the cell-DNA mixture, followed by a one hr 37° C. outgrowth period with agitation. A volume of 25-50 μl of appropriately diluted cells in SOC was spread onto Rich Agar plates (composition per liter: 10 g soy peptone, 5 g yeast extract, 10 g NaCl, 1 g MgCl2-6H2O, 1 g dextrose, 15 grams agar) supplemented with 100 μg/ml ampicillin. Plates were inverted and incubated for 16 hrs at 37° C., followed by quantification of total colony numbers.

T4 DNA ligase [2] = target: T1, T4 DNA ligase; assay type: biochemical; design: purchased NEB (New England Biolabs), Ipswich, Mass. #M0202
Description: as §1, §2, §3, §4, §5, §6

ligase = conditions: Xiao et al. 2007; nick junctions in double-stranded DNA; cited from earlier work
T4 DNA ligase [3] = target: T1, T4 DNA ligase; conditions: Pheiffer et al. 1983; cited from earlier work
[4] = enhancer at 12%, no addition = 1-fold, single-base overhangs

With `OCCCO` [1,3-PrD, 1,3-propanediol] the “Cloning Enhancement” value (T4 DNA ligase [1]; enhancer at 12%) was 7-fold and the “Recircularization Enhancement” value (T4 DNA ligase [2]; [4]) was 9 fold.

For `C[N+](C)(C)CC(=O)O` [Betaine], the “Cloning Enhancement” value (T4 DNA ligase [1]; enhancer at 1.3M) was 12-fold and the “Recircularization Enhancement” value (T4 DNA ligase [2]; enhancer at 1.3M, no addition = 1-fold, single-base overhangs) was 13-fold.

For `C[S+](C)[O-]` [DMSO, dimethyl sulfoxide], the “Cloning Enhancement” value (T4 DNA ligase [1]; enhancer at 6%) is listed as 12-fold, the “Effect on efficiency of ligation” value (ligase) is listed as “inhibited the efficiency of the ligation reaction at nick junctions in double-stranded DNA” and the “Recircularization Enhancement” value (T4 DNA ligase [2]; enhancer at 6%, no addition = 1-fold, single-base overhangs) is listed as 9-fold.

With `CCO` [Ethanol] the “Cloning Enhancement” value (T4 DNA ligase [1]; enhancer at 12%) was 25-fold and the “Recircularization Enhancement” value (T4 DNA ligase [2]) was 9-fold.

With `OCCO` [Ethylene glycol] the “Cloning Enhancement” value (T4 DNA ligase [1]; enhancer at 12%) was 10-fold and the “Recircularization Enhancement” value (T4 DNA ligase [2]) was 8-fold.

For `OCC(O)CO` [Glycerol], the “Cloning Enhancement” value (T4 DNA ligase [1]; enhancer at 12%) is given as 4-fold, the “Effect on efficiency of ligation” value (ligase) is given as “inhibited the efficiency of the ligation reaction at nick junctions in double-stranded DNA” and the “Recircularization Enhancement” value (T4 DNA ligase [2]; [4]) is given as 5-fold.

In the case of `CC(C)O` [Isopropanol], the “Cloning Enhancement” value (T4 DNA ligase [1]; enhancer at 12%) is reported as 16-fold and the “Recircularization Enhancement” value (T4 DNA ligase [2]; [4]) is reported as 10-fold.

For `NC=O` [formamide, reference compound], the “Effect on efficiency of ligation” value (ligase) is given as “inhibited the efficiency of the ligation reaction at nick junctions in double-stranded DNA”.

In the case of PEG 200, the “Effect on blunt-end ligation” value (T4 DNA ligase [3]) is given as “little effect on ligation”.

For PEG 400, the “Effect on blunt-end ligation” value (T4 DNA ligase [3]) is listed as “little effect on ligation”.
